For 19 compounds, IC50 results are on record in patent publication US20100099676A1 (SHIONOGI & CO., LTD., priority 2006, published 2010).

What all share (assay): Enzyme inhibiting activity of MMPs, fluorogenic peptide substrate
Holding throughout (type): biochemical

One assay deals with T1, MMP-13 (Homo sapiens, UniProt P45452).
T1 construct: purchased Calbiochem (EMD/MERCK Biosciences)
Particulars: APMA-activated proenzyme; substrate MOCAc-Pro-Leu-Gly-Leu-A2Pr(DNP)-Ala-Arg-NH2, fluorescent intensity; read-out: IC50 MMP-13. An outline of the steps: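 Pro-MMP-13 was activated with 1 mM APMA at 37° C for 2 h in 50 mM Tris-HCl pH 7.6, 0.3 M NaCl, 10 mM CaCl2, 0.005% Brij35. Activity was read by fluorescence using MOCAc-Pro-Leu-Gly-Leu-A2Pr(DNP)-Ala-Arg-NH2 substrate, with enzyme and inhibitor blank corrections. IC50 is the concentration giving 50% inhibition.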

The next assay addresses T2, MMP-9 (Homo sapiens, UniProt P14780).
T2 construct: purchased Calbiochem (EMD/MERCK Biosciences)
The following applies: substrate MOCAc-Pro-Leu-Gly-Leu-A2Pr(DNP)-Ala-Arg-NH2, fluorescent intensity. Here is the method: (§1) Various human MMPs (MMP-2, MMP-9 and MMP-13) were purchased from Calbiochem (EMD/MERCK Biosciences).
(§2) The enzyme activity of MMPs was measured according to the method described in C. Graham Knight, Frances Willenbrock and Gillian Murphy: A novel coumarin-labelled peptide for sensitive continuous assays of the matrix metalloproteinases: FEBS LETT., 296, (1992), 263-266. As a substrate, MOCAc-Pro-Leu-Gly-Leu-A2Pr(DNP)- Ala-Arg-NH2 (Peptide Institute, Inc. Osaka, Japan) was used, and the following four assays are performed per compound (inhibitor) for measuring the inhibiting activity.
(§3) (A) Substrate (synthetic substrate), enzyme (MMPs), inhibitor
(§4) (B) Substrate (synthetic substrate), inhibitor
(§5) (C) Substrate (synthetic substrate), enzyme (MMPs)
(§6) (D) Substrate (synthetic substrate)
(§7) In each assay, the fluorescent intensity was measured, and inhibition (%) was calculated by the following equation.
(§8) Inhibition (%)=[I−(A−B)/(C−D)]×100
(§9) IC50 indicates a concentration at which inhibition (%) is 50%.

The next assay has as its target T3, MMP-2 (Homo sapiens, UniProt P08253).
T3 construct: purchased Calbiochem (EMD/MERCK Biosciences)
T3 sequence (P08253 110-660): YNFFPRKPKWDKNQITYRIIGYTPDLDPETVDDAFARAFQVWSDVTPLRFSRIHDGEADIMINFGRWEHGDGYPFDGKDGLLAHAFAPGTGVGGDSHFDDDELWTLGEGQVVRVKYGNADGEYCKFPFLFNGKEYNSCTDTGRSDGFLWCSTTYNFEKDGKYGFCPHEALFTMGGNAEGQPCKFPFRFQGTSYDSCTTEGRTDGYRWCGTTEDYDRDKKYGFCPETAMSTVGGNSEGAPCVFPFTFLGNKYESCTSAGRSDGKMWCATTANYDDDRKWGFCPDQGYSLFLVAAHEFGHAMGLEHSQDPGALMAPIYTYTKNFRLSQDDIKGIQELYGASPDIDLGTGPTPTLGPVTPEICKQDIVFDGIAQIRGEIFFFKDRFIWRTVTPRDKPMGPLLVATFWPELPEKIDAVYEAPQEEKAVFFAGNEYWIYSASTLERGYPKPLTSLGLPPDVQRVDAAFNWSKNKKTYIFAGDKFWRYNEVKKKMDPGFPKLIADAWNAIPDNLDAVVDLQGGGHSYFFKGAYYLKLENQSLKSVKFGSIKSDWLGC
Particulars: substrate MOCAc-Pro-Leu-Gly-Leu-A2Pr(DNP)-Ala-Arg-NH2, fluorescent intensity. Here is the method: as §1, §2, §3, §4, §5, §6, §7, §8, §9

T2 sequence (P14780 94-707): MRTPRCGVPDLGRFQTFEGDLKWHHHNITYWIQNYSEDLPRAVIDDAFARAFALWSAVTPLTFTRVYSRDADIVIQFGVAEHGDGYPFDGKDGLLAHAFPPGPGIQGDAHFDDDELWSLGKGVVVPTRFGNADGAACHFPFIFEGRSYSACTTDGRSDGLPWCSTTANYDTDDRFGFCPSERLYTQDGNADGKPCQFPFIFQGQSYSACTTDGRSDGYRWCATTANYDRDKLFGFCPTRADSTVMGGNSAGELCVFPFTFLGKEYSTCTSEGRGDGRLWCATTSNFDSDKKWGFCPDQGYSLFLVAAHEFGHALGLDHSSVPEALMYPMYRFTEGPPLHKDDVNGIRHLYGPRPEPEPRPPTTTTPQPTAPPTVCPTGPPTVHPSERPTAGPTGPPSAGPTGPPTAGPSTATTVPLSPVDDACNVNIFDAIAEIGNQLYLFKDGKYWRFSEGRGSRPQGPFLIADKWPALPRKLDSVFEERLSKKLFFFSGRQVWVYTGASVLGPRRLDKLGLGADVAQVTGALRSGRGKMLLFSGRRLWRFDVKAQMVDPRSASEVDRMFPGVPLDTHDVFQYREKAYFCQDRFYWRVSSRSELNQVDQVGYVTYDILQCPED

The IC50 is the midpoint of a concentration-inhibition curve. Consider `CC(C)[C@@H](NS(=O)(=O)N1CCN(c2ccc(C#Cc3ccc4c(c3)c(=O)n(CC#N)c(=O)n4C)cc2)CC1)C(=O)O` [Compound V-68, (R)-2-{4-[4-(3-cyanomethyl-1-methyl-2,4-dioxo-1,2,3,4-tetrahydroquinazolin-6-ylethynyl)-phenyl]-piperazine-1-sulfonylamino}-3-methylbutanoic acid], for which the IC50 was 5 nM at MMP-13, 1000 to 10000 nM against MMP-9 and 1000 to 10000 nM against MMP-2.
Regarding `CC(C)[C@@H](NS(=O)(=O)N1CCN(c2ccc(C#Cc3ccnc(C(=O)NCc4cccs4)c3)cc2)CC1)C(=O)O` [III-187, (R)-3-methyl-2-[4-(4-{2-[(thiophen-2-ylmethyl)-carbamoyl]-pyridin-4-ylethynyl}-phenyl)-piperazine-1-sulfonylamino]-butanoic acid], the IC50 at MMP-13 is 7 nM; on MMP-9, more than 10000 nM; against MMP-2, 1000 to 10000 nM.
The matching figures for `CC(C)[C@@H](NS(=O)(=O)N1CCN(c2ccc(C#Cc3cc(C(=O)NCc4ccccc4)c(=O)n(C)c3)cc2)CC1)C(=O)O` [III-30, (R)-2-{4-[4-(5-benzylcarbamoyl-1-methyl-6-oxo-1,6-dihydropyridin-3-ylethynyl)-phenyl]-piperazine-1-sulfonylamino}-3-methylbutanoic acid]: 22 nM, more than 10000 nM and 1000 to 10000 nM.
Take `CCCCC(=O)c1cn(C)c2ccc(C#Cc3ccc(N4CCN(S(=O)(=O)N[C@H](C)C(=O)O)CC4)cc3)cc12` [III-45, (R)-2-{4-[4-(1-methyl-3-pentanoyl-1H-indol-5-ylethynyl)-phenyl]-piperazine-1-sulfonylamino}-proponic acid]: the values for the IC50 on MMP-13, against MMP-9 and on MMP-2 were 13 nM, more than 10000 nM and more than 10000 nM, respectively.
With `CC(C)[C@@H](NS(=O)(=O)N1CCN(c2ccc(C#Cc3ccnc(C(=O)NCc4ccccc4)c3)cc2)CC1)C(=O)O` [III-177, (R)-2-{4-[4-(2-benzylcarbamoylpyridin-4-ylethynyl)-phenyl]-piperazine-1-sulfonylamino}-3-methylbutanoic acid], the IC50 is 9 nM at MMP-13, more than 10000 nM on MMP-9 and 1000 to 10000 nM on MMP-2.
The matching figures for `CC(=O)c1ccc(Cl)c2ccc(C#Cc3ccc(N4CCN(S(=O)(=O)N[C@H](C)C(=O)O)CC4)cc3)cc12` [III-10, (R)-2-{4-[4-(8-acetyl-5-chrolonaphthalen-2-ylethynyl)-phenyl]-piperazine-1-sulfonylamino}-proponic acid]: 13 nM, more than 10000 nM and more than 10000 nM.
Regarding `COc1ccc(F)cc1-c1csc(C#Cc2ccc(N3CCN(S(=O)(=O)N[C@H](C)C(=O)O)CC3)cc2)n1` [Compound V-15, (R)-2-(4-{4-[4-(5-fluoro-2-methoxyphenyl)-thiazol-2-ylethynyl]-phenyl}-piperazine-1-sulfonylamino)-proponic acid], the 50% inhibitory concentration (IC50) at MMP-13 was 13 nM; on MMP-9, more than 10000 nM; against MMP-2, 1000 to 10000 nM.
In the case of `CC(C)[C@@H](NS(=O)(=O)N1CCN(c2ccc(C#Cc3ccnc(C(=O)NCc4ccc(N5CCOCC5)cc4)c3)cc2)CC1)C(=O)O`, the IC50 on MMP-13 was 4 nM; against MMP-9, more than 10000 nM; at MMP-2, 1000 to 10000 nM.
The matching figures for `CC(C)[C@@H](NS(=O)(=O)N1CCN(c2ccc(C#Cc3ccnc(C(=O)NCc4ccc5c(c4)OCO5)c3)cc2)CC1)C(=O)O` [III-199, (R)-2-[4-(4-{2-[(benzo[1,3]dioxol-5-ylmethyl)-carbamoyl]-pyridin-4-ylethynyl}-phenyl)-piperazine-1-sulfonylamino]-3-methylbutanoic acid]: 4 nM, more than 10000 nM and 1000 to 10000 nM.
For `CC(C)[C@@H](NS(=O)(=O)N1CCN(c2ccc(C#Cc3nc(-c4cccc(OCc5ccc(C(N)=O)cc5)c4)cs3)cc2)CC1)C(=O)O` [Compound V-78, (R)-2-[4-(4-{4-[3-(4-carbamoylbenzyloxy)-phenyl]-thiazol-2-ylethynyl}-phenyl)-piperazine-1-sulfonylamino]-3-methylbutanoic acid] the same measures were 4 nM, more than 10000 nM and more than 10000 nM.
For `CC(C)[C@@H](NS(=O)(=O)N1CCN(c2ccc(C#Cc3ccnc(C(=O)NCc4ccc(F)c(F)c4)c3)cc2)CC1)C(=O)O` [III-189, (R)-2-(4-{4-[2-(3.4-difluorobenzylcarbamoyl)-pyridin-4-ylethynyl]-phenyl}-piperazine-1-sulfonylamino)-3-methylbutanoic acid] the same measures were 5 nM, more than 10000 nM and 1000 to 10000 nM.
Turning to `CC(C)[C@@H](NS(=O)(=O)N1CCN(c2ccc(C#Cc3ccnc(C(=O)NCc4cccc(CNC(=O)OC(C)(C)C)c4)c3)cc2)CC1)C(=O)O` [III-224, (R)-2-[4-(4-{2-[3-(tert-butoxycarbonylaminomethyl)-benzylcarbamoyl]-pyridin-4-ylethynyl}-phenyl)-piperazine-1-sulfonylamino]-3-methylbutanoic acid], the IC50 was 16 nM at MMP-13, more than 10000 nM against MMP-9 and 1000 to 10000 nM on MMP-2.
The matching figures for `CC(C)[C@@H](NS(=O)(=O)N1CCN(c2ccc(C#Cc3ccnc(C(=O)NCc4ccc(SC(F)(F)F)cc4)c3)cc2)CC1)C(=O)O` [III-222, (R)-3-methyl-2-(4-{4-[2-(4-trifluoromethylsulfanylbenzylcarbamoyl)-pyridin-4-ylethynyl]-phenyl}-piperazine-1-sulfonylamino)-butanoic acid]: 23 nM, more than 10000 nM and more than 10000 nM.
As for `CC(C)[C@@H](NS(=O)(=O)N1CCN(c2ccc(C#Cc3ccc4c(c3)c(=O)n(Cc3ccc(F)cc3)c(=O)n4C)cc2)CC1)C(=O)O` [Compound V-60, (R)-2-(4-{4-[3-(4-fluorobenzyl)-1-methyl-2,4-dioxo-1,2,3,4-tetrahydroquinazolin-6-ylethynyl]-phenyl}-piperazine-1-sulfonylamino)-3-methylbutanoic acid], the IC50 on MMP-13 is 21 nM; at MMP-9, more than 10000 nM; against MMP-2, more than 10000 nM.
On to `CC(=O)Nc1cccc(-c2csc(C#Cc3ccc(N4CCN(S(=O)(=O)N[C@@H](C(=O)O)C(C)C)CC4)cc3)n2)c1` [Compound V-86, (R)-2-(4-{4-[4-(3-acetylaminophenyl)-thiazol-2-ylethynyl]-phenyl}-piperazine-1-sulfonylamino)-3-methylbutanoic acid], for which the IC50 at MMP-13 was 12 nM; at MMP-9, more than 10000 nM; on MMP-2, 1000 to 10000 nM.
The matching figures for `CC(C)[C@@H](NS(=O)(=O)N1CCN(c2ccc(C#Cc3ccnc(C(=O)NCc4cccc(Cl)c4)c3)cc2)CC1)C(=O)O` [III-81, (R)-2-(4-{4-[2-(3-chrolobenzylcarbamoyl)-pyridin-4-ylethynyl]-phenyl}-piperazine-1-sulfonylamino)-3-methylbutanoic acid]: 6 nM, more than 10000 nM and 1000 to 10000 nM.
In the case of `C[C@@H](NS(=O)(=O)N1CCN(c2ccc(C#Cc3ccnc(C(=O)NCc4ccc(Cl)cc4)c3)cc2)CC1)C(=O)O` [III-1, (R)-2-(4-{4-[2-(4-chrolobenzylcarbamoyl)-pyridin-4-ylethynyl]-phenyl}-piperazine-1-sulfonylamino)-proponic acid], the results for the half-maximal inhibitory concentration (IC50) at MMP-13, against MMP-9 and against MMP-2 were 3 nM, more than 10000 nM and 1000 to 10000 nM, respectively.
“(S)-2-(4-{4-[(E)-2-(acetylnaphthalen-2-yl)-vinyl]-phenyl}-piperazine-1-sulfonylamino)-pentanoic acid [III-25]”: the figures for the half-inhibitory concentration (IC50) on MMP-13, against MMP-9 and against MMP-2 were 18 nM, more than 10000 nM and more than 10000 nM, respectively.
For `CC(C)[C@@H](NS(=O)(=O)N1CCN(c2ccc(C#Cc3ccc4ccnc(C(N)=O)c4c3)cc2)CC1)C(=O)O` [Compound V-88, (R)-2-{4-[4-(1-carbamoylisoquinolin-7-ylethynyl)-phenyl]-piperazine-1-sulfonylamino}-3-methylbutanoic acid], the half-inhibitory concentration (IC50) on MMP-13 is 24 nM; on MMP-9 it was more than 10000 nM; at MMP-2, 1000 to 10000 nM.
